US5079152A, “Antibody combining sites that exhibit stereoselective synthase activity, and methods using the same” (Scripps Clinic and Research Foundation, priority 1987, dated 1992)
Like-named read-outs stand apart in the source and are kept apart here.

Tested on: monoclonal antibody 24B11 (receptor lactone synthase secreted by hybridoma 24B11, ATCC HB9488)
Test: Kinetics of lactone-forming cyclization catalyzed by monoclonal receptor lactone synthase 24B11 (phenol release at 271 nm, Lineweaver-Burk)
Type: biochemical, mouse

Compound	Km (in the absence of binding by the unreactive enantiomer, read-out: Km for the reactive enantiomer of the substrate ligand)	kcat / kuncat (catalyzed versus uncatalyzed first order cyclization rate constant)	rate acceleration (presence versus absence of the catalytic lactone synthase molecule)	Km (racemic substrate ligand 20-100 uM, receptor 2 uM, 25 mM phosphate buffer pH 7.0, 25 degrees C, read-out: Km)	kcat (receptor 2 uM (IgG, 150,000 daltons), pH 7.0, 25 degrees C)	Vmax (receptor 2 uM, substrate 20-100 uM, pH 7.0, 25 degrees C)
CC(=O)NCC(O)CCCC(=O)Oc1ccccc1 (single isomer, unassigned) [reactive enantiomer of the substrate ligand]	~38 µM					
CC(=O)NCC(O)CCCC(=O)Oc1ccccc1 (racemic) [phenyl 6-acetamido-5-hydroxyhexanoate]		167	167 fold	76 µM	0.50 L/min	0.99 µM/min
